Measurements taken from PMC9981942, “Pharmacokinetics and tissue distribution of Ramulus Mori (Sangzhi) alkaloids in rats and its effects on liver enzyme activity” (Frontiers in Pharmacology, 2023).
Where two headings read alike, the source gives them in different places.

Assays:
major CYP450s in HLMs = assay: Effect on activity of the major CYP450s in human liver microsomes (all isoforms together); settings: final concentration SZ-A 8.899 μg/mL (equivalent to DNJ 20 μM), FA 5 μM, DAB 8 μM
[1] = Tissue distribution after single oral SZ-A (20 mg/kg) in ICR mice; format: in vivo
Protocol: (§1) Twenty SD rats were randomly classified into four groups corresponding to four-time points (5 and 30 min, 4 and 12 h) (n = 20; 5 animals per time point) that received SZ-A solution (40 mg/kg) via oral administration. After the completion of dose administration, plasma and tissue samples (derived from the heart, liver, spleen, lung, kidney, aortic blood vessels, brown adipose tissue, subcutaneous adipose tissue, abdominal adipose tissue, muscle (thigh skeletal muscle), pancreas, and brain) were collected at predetermined time points. Twenty-eight ICR mice were randomly classified into four groups (n = 7 per group) corresponding to four-time points (5 and 30 min, 4 and 12 h) that received SZ-A solution (20 mg/kg) via oral administration. After the completion of dose administration, tissue samples (derived from the heart, liver, spleen, lung, kidney, aortic blood vessels, brown adipose tissue, abdominal adipose tissue, muscle (thigh skeletal muscle), pancreas, and brain) were collected at predetermined time points.
(§2) Collected tissue samples were washed with normal saline. The surface moisture was removed by blotting gently with filter paper, and the weight was recorded. After adding an appropriate amount of normal saline, these tissue samples were ground into homogenates using a cryogenic grinder (JX-CL, Shanghai Jingxin, Shanghai, China). The obtained homogenates were stored at −80°C until LC-MS/MS analysis.

[2] = test system: CYP450s in RLMs (other isoenzymes); assay: Effect on activity of rat liver microsome isoenzymes other than CYP2C11; settings: SZ-A 8.899 μg/mL, DNJ 20 μM, FA 5 μM, DAB 8 μM
[3] = Pharmacokinetic study: plasma levels after oral SZ-A in SD rats (LC-MS/MS, DAS 3.2.8); format: in vivo; settings: plasma, plasma; for Tmax / AUC(0-inf) / AUC(0-t) / Cmax / half-life / MRT last / MRT inf: both sexes, rat; for Tmax: SD, po; for AUC(0-inf) / AUC(0-t) / Cmax / half-life / CLz / VRT(0-t) / VRT(0-∞) / Vz: n=8; for MRT last: n=8, read-out: MRT(0-t); for MRT inf: n=8, read-out: MRT(0-∞)
Protocol: Twenty-four SD rats were fasted for 12 h (free access to water) and randomly classified into three groups (n = 8; half male and female) that received different doses of SZ-A solution (25, 50, and 200 mg/kg) via oral administration. After completion of dose administration, blood samples (0.3 mL) were collected through an indwelling catheter from the jugular vein at predetermined time points (5, 15, 30, and 45 min, 1, 2, 4, 8, and 24 h). The blood was centrifuged at 5,000 rpm for 10 min to separate the plasma. All plasma samples were stored frozen at −80°C until liquid chromatography coupled to tandem mass spectrometry (LC-MS/MS) analysis (AB SCIEX Triple Quad™ 4,500 mass spectrometer, Applied Biosystems Inc., United States).
(§3) Primary pharmacokinetic parameters, including Cmax, Tmax, area under the plasma concentration-time curve (AUC), t1/2, clearance rate, and the apparent volume of distribution, were calculated using DAS 3.2.8 (Bio Guider Co., Shanghai, China).

[4] = Tissue distribution after single oral SZ-A (40 mg/kg) in SD rats, plasma and 12 tissues; format: in vivo; settings: for half-life / AUC(0-t) / Tmax / Cmax: rat; for AUC(0-t): n=5, read-out: AUC(0-t)
Protocol: as §1, §2, §3

[5] = Sprague-Dawley, muscle (thigh skeletal muscle), Muscle, n=5
[6] = Subcutaneous adipose tissue, n=5

## OC[C@H]1NCC[C@@H](O)[C@@H]1O [FA, fagomine]
Major CYP450s in HLMs
  effect on the major CYP450s in HLMs, either inhibition or activation: no significant effect
[1]
  tissues with the highest concentrations: kidney, followed by the liver
[2]
  effect on other isoenzymes in RLMs: no obvious effect
[3]; 25 mg/kg, oral SZ-A 25 mg/kg, n=8, read-out: Tmax
  Tmax: 30 ± 18 min
[3]; 50 mg/kg, oral SZ-A 50 mg/kg, n=8, read-out: Tmax
  Tmax: 33.6 ± 22.2 min
[3]; 200 mg/kg, oral SZ-A 200 mg/kg, n=8, read-out: Tmax
  Tmax: 52.8 ± 16.2 min
[3]; 200 mg/kg, oral SZ-A 25, 50 and 200 mg/kg, read-out: time to maximum plasma concentration (Tmax), all dose groups
  Tmax: ≤ 52.8 min
[3]; oral SZ-A 25 mg/kg
  AUC(0-inf): 1040 ± 356 ng·h/mL
  AUC(0-t): 1040 ± 356 ng·h/mL
  Cmax: 616 ± 168 ng/mL
  half-life: 69.6 ± 18.6 min
  MRT last: 93 ± 13.8 min
  MRT inf: 93 ± 13.8 min
  CLz: 78.5 ± 24.3 mL/min/kg
  VRT(0-t): 1.46±0.55 h^2
  VRT(0-∞): 1.46±0.55 h^2
  Vz: 7.62 ± 2.89 L/kg
[3]; oral SZ-A 50 mg/kg
  AUC(0-inf): 2370 ± 634 ng·h/mL
  AUC(0-t): 2370 ± 634 ng·h/mL
  Cmax: 1250 ± 506 ng/mL
  half-life: 71.4 ± 1.8 min
  MRT last: 100 ± 36.6 min
  MRT inf: 100 ± 36.6 min
  CLz: 66.7 ± 17.3 mL/min/kg
  VRT(0-t): 1.90±2.02 h^2
  VRT(0-∞): 1.91±2.02 h^2
  Vz: 6.88 ± 1.85 L/kg
[3]; oral SZ-A 200 mg/kg
  AUC(0-inf): 6010 ± 1650 ng·h/mL
  AUC(0-t): 6010 ± 1650 ng·h/mL
  Cmax: 2580 ± 1250 ng/mL
  half-life: 64.8 ± 2.4 min
  MRT last: 118 ± 13.2 min
  MRT inf: 118 ± 13.2 min
  CLz: 105 ± 26.7 mL/min/kg
  VRT(0-t): 3.08±0.76 h^2
  VRT(0-∞): 3.08±0.76 h^2
  Vz: 9.94 ± 2.86 L/kg
[4]
  time of maximum drug concentration in heart, muscle, lung, and aortic vessels: 5 min
  tissues with the highest concentrations: kidney, followed by the liver, aortic vessels, and brown adipose tissue
[4]; Plasma, n=5
  CLz: 65.8 ± 15 mL/min/kg
  Vz: 4.39 ± 2.04 L/kg
[4]; Sprague-Dawley, Brown adipose tissue, n=5
  half-life: 139 ± 139 min
[4]; Sprague-Dawley, Brown adipose tissue
  AUC(0-t): 1480 ± 380 ng·h/mL
[4]; Sprague-Dawley, Brown adipose tissue, n=5, read-out: Tmax
  Tmax: 19.8 ± 13.8 min
[4]; Sprague-Dawley, Kidney, n=5
  Cmax: 8970 ± 1680 ng/mL
  half-life: 139 ± 72.6 min
[4]; Sprague-Dawley, Kidney
  AUC(0-t): 27000 ± 8880 ng·h/mL
[4]; Sprague-Dawley, Kidney, n=5, read-out: Tmax
  Tmax: 25.2 ± 11.4 min
[4]; Sprague-Dawley, Liver, n=5
  Cmax: 1130 ± 187 ng/mL
  half-life: 36 ± 0.6 min
[4]; Sprague-Dawley, Liver
  AUC(0-t): 2990 ± 1030 ng·h/mL
[4]; Sprague-Dawley, Liver, n=5, read-out: Tmax
  Tmax: 25.2 ± 11.4 min
[4]; Sprague-Dawley, Lung, n=5
  Cmax: 248 ± 5.46 ng/mL
  half-life: 31.2 ± 15.6 min
[4]; Sprague-Dawley, Lung, n=5, read-out: Tmax
  Tmax: 13.2 ± 14.4 min
[4]; Sprague-Dawley, Pancreas, n=5
  Cmax: 96.9 ± 13.9 ng/mL
  half-life: 42 ± 2.4 min
[4]; Sprague-Dawley, Pancreas
  AUC(0-t): 705 ± 118 ng·h/mL
[4]; Sprague-Dawley, Pancreas, n=5, read-out: Tmax
  Tmax: 114 ± 115 min
[4]; Sprague-Dawley, Plasma, n=5
  Cmax: 692 ± 135 ng/mL
  half-life: 46.8 ± 22.8 min
[4]; Sprague-Dawley, Plasma
  AUC(0-t): 1800 ± 421 ng·h/mL
[4]; Sprague-Dawley, Plasma, n=5, read-out: Tmax
  Tmax: 25.2 ± 11.4 min
[4]; [5]
  Cmax: 175 ± 91.2 ng/mL
  half-life: 40.8 ± 2.4 min
[4]; Sprague-Dawley, muscle (thigh skeletal muscle), Muscle
  AUC(0-t): 577 ± 298 ng·h/mL
[4]; Sprague-Dawley, muscle (thigh skeletal muscle), Muscle, n=5, read-out: Tmax
  Tmax: 19.8 ± 13.8 min
[4]; Abdominal adipose tissue, n=5
  Cmax: 221 ± 137 ng/mL
  half-life: 38.4 ± 15 min
[4]; Abdominal adipose tissue
  AUC(0-t): 409 ± 127 ng·h/mL
[4]; Abdominal adipose tissue, n=5, read-out: Tmax
  Tmax: 25.2 ± 11.4 min
[4]; Aortic blood vessels, n=5
  Cmax: 1090 ± 760 ng/mL
  half-life: 27 ± 14.4 min
[4]; Aortic blood vessels
  AUC(0-t): 1060 ± 367 ng·h/mL
[4]; Aortic blood vessels, n=5, read-out: Tmax
  Tmax: 4.8 min
[4]; Brown adipose tissue, n=5
  Cmax: 463 ± 161 ng/mL
[4]; Heart, n=5
  Cmax: 128 ± 33.6 ng/mL
  half-life: 42.6 ± 0.6 min
[4]; Heart
  AUC(0-t): 382 ± 246 ng·h/mL
[4]; Heart, n=5, read-out: Tmax
  Tmax: 10.2 ± 11.4 min
[4]; Lung
  AUC(0-t): 367 ± 136 ng·h/mL
[4]; Spleen, n=5
  Cmax: 198 ± 77.7 ng/mL
  half-life: 42 ± 4.8 min
[4]; Spleen
  AUC(0-t): 491 ± 264 ng·h/mL
[4]; Spleen, n=5, read-out: Tmax
  Tmax: 30 min
[4]; [6]
  Cmax: 102 ± 52 ng/mL
  half-life: 44.4 ± 1.8 min
[4]; Subcutaneous adipose tissue
  AUC(0-t): 212 ± 95 ng·h/mL
[4]; Subcutaneous adipose tissue, n=5, read-out: Tmax
  Tmax: 15 ± 13.8 min
[4]; other tissues (not named), tissues not named separately for that alkaloid, read-out: time of peak concentration in other tissues (converted)
  Tmax: 30 min
[4]; up to 12 h
  accumulation in tissues: no long-term accumulation
